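Interpolation was linear, between the two tested concentrations surrounding the appropriate level; five concentrations were tested over 48 hours in 96-well plates. GI50 = concentration required for 50% inhibition of growth.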 Activity calls are given as the source filed them. Rule as the data show it: active = GI50 up to about 1.1 µM and inactive = higher.
What was measured:
Experiment in all cases: growth of human tumour cells (NCI), 48 h
TK-10 = system: TK-10
M14 = system: M14
MDA-MB-231 = system: MDA-MB-231
NCI-H460 = system: NCI-H460
DU-145 = system: DU-145
A549 = system: A549
HCT-116 = system: HCT-116
SK-OV-3 = system: SK-OV-3
HL-60 = system: HL-60
K562 = system: K562
SR = system: SR
SF-268 = system: SF-268
NCI-H226 = system: NCI-H226
CCRF-CEM = system: CCRF-CEM
BT-549 = system: BT-549
SK-MEL-28 = system: SK-MEL-28
U-251 = system: U-251
RXF 393 = system: RXF 393
SF-295 = system: SF-295
EKVX = system: EKVX
HCC 2998 = system: HCC 2998
UACC-257 = system: UACC-257
OVCAR-8 = system: OVCAR-8
LOX IMVI = system: LOX IMVI
ACHN = system: ACHN
HT-29 = system: HT-29
SK-MEL-5 = system: SK-MEL-5
SF-539 = system: SF-539
MCF7 = system: MCF7
SNB-19 = system: SNB-19
COLO 205 = system: COLO 205
A498 = system: A498
UACC-62 = system: UACC-62
NCI/ADR-RES = system: NCI/ADR-RES
PC-3 = system: PC-3
SN12C = system: SN12C
RPMI-8226 = system: RPMI-8226
MDA-N = system: MDA-N
IGROV-1 = system: IGROV-1
SNB-75 = system: SNB-75
MDA-MB-435 = system: MDA-MB-435
HOP-62 = system: HOP-62
786-0 = system: 786-0
NCI-H23 = system: NCI-H23
MOLT-4 = system: MOLT-4
SW-620 = system: SW-620
UO-31 = system: UO-31
KM12 = system: KM12
HOP-92 = system: HOP-92
HCT-15 = system: HCT-15
OVCAR-4 = system: OVCAR-4
OVCAR-3 = system: OVCAR-3
NCI-H522 = system: NCI-H522
SK-MEL-2 = system: SK-MEL-2
Hs-578T = system: Hs-578T
T47D = system: T47D
OVCAR-5 = system: OVCAR-5
CAKI-1 = system: CAKI-1

Structure (SMILES): N#Cc1ccc(-n2c3ccccc3c3ccc4c(c32)C(=O)C=CC4=O)cc1
- GI50 (TK-10): 3.4 µM (inactive)
- GI50 (M14): 2.68 µM (inactive)
- GI50 (MDA-MB-231): 2.51 µM (inactive)
- GI50 (NCI-H460): 21.6 µM (inactive)
- GI50 (DU-145): 3.6 µM (inactive)
- GI50 (A549): 16.9 µM (inactive)
- GI50 (HCT-116): 2.42 µM (inactive)
- GI50 (SK-OV-3): 13.8 µM (inactive)
- GI50 (HL-60): 0.578 µM (active)
- GI50 (K562): 1.29 µM (inactive)
- GI50 (SR): 1.46 µM (inactive)
- GI50 (SF-268): 2.62 µM (inactive)
- GI50 (NCI-H226): 24.3 µM (inactive)
- GI50 (CCRF-CEM): 0.409 µM (active)
- GI50 (BT-549): 12.2 µM (inactive)
- GI50 (SK-MEL-28): 2.88 µM (inactive)
- GI50 (U-251): 4.56 µM (inactive)
- GI50 (RXF 393): 2.39 µM (inactive)
- GI50 (SF-295): 14 µM (inactive)
- GI50 (EKVX): 1.91 µM (inactive)
- GI50 (HCC 2998): 8.43 µM (inactive)
- GI50 (UACC-257): 4.67 µM (inactive)
- GI50 (OVCAR-8): 3.66 µM (inactive)
- GI50 (LOX IMVI): 2.99 µM (inactive)
- GI50 (ACHN): 1.56 µM (inactive)
- GI50 (HT-29): 1.66 µM (inactive)
- GI50 (SK-MEL-5): 5.02 µM (inactive)
- GI50 (SF-539): 3.94 µM (inactive)
- GI50 (MCF7): 2.52 µM (inactive)
- GI50 (SNB-19): 10.1 µM (inactive)
- GI50 (COLO 205): 2.79 µM (inactive)
- GI50 (A498): 1.85 µM (inactive)
- GI50 (UACC-62): 6.25 µM (inactive)
- GI50 (NCI/ADR-RES): 10.9 µM (inactive)
- GI50 (PC-3): 3.06 µM (inactive)
- GI50 (SN12C): 3.65 µM (inactive)
- GI50 (RPMI-8226): 3.72 µM (inactive)
- GI50 (MDA-N): 4.99 µM (inactive)
- GI50 (IGROV-1): 5.25 µM (inactive)
- GI50 (SNB-75): 18.2 µM (inactive)
- GI50 (MDA-MB-435): 2.01 µM (inactive)
- GI50 (HOP-62): 15.3 µM (inactive)
- GI50 (786-0): 1.56 µM (inactive)
- GI50 (NCI-H23): 6.89 µM (inactive)
- GI50 (MOLT-4): 0.348 µM (active)
- GI50 (SW-620): 1.92 µM (inactive)
- GI50 (UO-31): 1.45 µM (inactive)
- GI50 (KM12): 10.2 µM (inactive)
- GI50 (HOP-92): 1.52 µM (inactive)
- GI50 (HCT-15): 4.49 µM
- GI50 (OVCAR-4): 3.78 µM (inactive)
- GI50 (OVCAR-3): 3.27 µM (inactive)
- GI50 (NCI-H522): 0.11 µM (active)
- GI50 (SK-MEL-2): 8.87 µM (inactive)
- GI50 (Hs-578T): 4.16 µM (inactive)
- GI50 (T47D): 2.74 µM (inactive)
- GI50 (OVCAR-5): 17.8 µM (inactive)
- GI50 (CAKI-1): 1.38 µM (inactive)

Structure (SMILES): COc1ccc(/C=C2\N=C(c3ccccc3)N(C3Nc4cc5c(cc4S3)NC(N3C(=O)/C(=C/c4ccc(OC)cc4)N=C3c3ccccc3)S5)C2=O)cc1 (stereo not given)
- GI50 (TK-10): > 100 µM (inactive)
- GI50 (M14): > 100 µM (inactive)
- GI50 (MDA-MB-231): > 100 µM (inactive)
- GI50 (NCI-H460): 12.7 µM (inactive)
- GI50 (DU-145): 50.5 µM (inactive)
- GI50 (A549): 36.8 µM (inactive)
- GI50 (HCT-116): 42.3 µM (inactive)
- GI50 (HL-60): 33.2 µM (inactive)
- GI50 (K562): 58.2 µM (inactive)
- GI50 (SR): 9.68 µM (inactive)
- GI50 (SF-268): 29.6 µM (inactive)
- GI50 (NCI-H226): 60.1 µM (inactive)
- GI50 (BT-549): 23.3 µM (inactive)
- GI50 (SK-MEL-28): > 100 µM (inactive)
- GI50 (U-251): 22.9 µM (inactive)
- GI50 (RXF 393): > 100 µM (inactive)
- GI50 (SF-295): > 100 µM (inactive)
- GI50 (EKVX): 16.7 µM (inactive)
- GI50 (HCC 2998): 30.1 µM (inactive)
- GI50 (UACC-257): > 100 µM (inactive)
- GI50 (OVCAR-8): 27.1 µM (inactive)
- GI50 (LOX IMVI): 37.3 µM (inactive)
- GI50 (ACHN): 90.4 µM (inactive)
- GI50 (HT-29): 46.2 µM (inactive)
- GI50 (SK-MEL-5): 37.2 µM (inactive)
- GI50 (SF-539): 11.6 µM (inactive)
- GI50 (MCF7): 43.6 µM (inactive)
- GI50 (A498): 40.4 µM (inactive)
- GI50 (NCI/ADR-RES): 19.2 µM (inactive)
- GI50 (PC-3): 83.6 µM (inactive)
- GI50 (RPMI-8226): 29.5 µM (inactive)
- GI50 (MDA-N): 37.9 µM (inactive)
- GI50 (IGROV-1): > 100 µM (inactive)
- GI50 (SNB-75): 22.5 µM (inactive)
- GI50 (MDA-MB-435): 56.6 µM (inactive)
- GI50 (HOP-62): 41.2 µM (inactive)
- GI50 (786-0): 28.1 µM (inactive)
- GI50 (NCI-H23): 42.9 µM (inactive)
- GI50 (MOLT-4): 23.6 µM (inactive)
- GI50 (SW-620): 61.5 µM (inactive)
- GI50 (UO-31): > 100 µM (inactive)
- GI50 (KM12): 54.6 µM (inactive)
- GI50 (HOP-92): > 100 µM (inactive)
- GI50 (HCT-15): 38.5 µM
- GI50 (OVCAR-4): 38.3 µM (inactive)
- GI50 (OVCAR-3): 43.6 µM (inactive)
- GI50 (NCI-H522): 18.1 µM (inactive)
- GI50 (SK-MEL-2): 31.6 µM (inactive)
- GI50 (Hs-578T): 48.5 µM (inactive)
- GI50 (T47D): 65.3 µM (inactive)
- GI50 (OVCAR-5): > 100 µM (inactive)
- GI50 (CAKI-1): > 100 µM (inactive)
